# Legend:
# [1] = molecular target: T1, Nuclear receptor ROR-gamma (Homo sapiens, UniProt P51449); test: Activity at human His(GST)-tagged ROR gamma LBD expressed in Escherichia coli BL21 (DE3) cells assessed as receptor-biotinylated SRC1 peptide interaction by TR-FRET assay; type: functional
# T1 sequence (P51449 whole entry): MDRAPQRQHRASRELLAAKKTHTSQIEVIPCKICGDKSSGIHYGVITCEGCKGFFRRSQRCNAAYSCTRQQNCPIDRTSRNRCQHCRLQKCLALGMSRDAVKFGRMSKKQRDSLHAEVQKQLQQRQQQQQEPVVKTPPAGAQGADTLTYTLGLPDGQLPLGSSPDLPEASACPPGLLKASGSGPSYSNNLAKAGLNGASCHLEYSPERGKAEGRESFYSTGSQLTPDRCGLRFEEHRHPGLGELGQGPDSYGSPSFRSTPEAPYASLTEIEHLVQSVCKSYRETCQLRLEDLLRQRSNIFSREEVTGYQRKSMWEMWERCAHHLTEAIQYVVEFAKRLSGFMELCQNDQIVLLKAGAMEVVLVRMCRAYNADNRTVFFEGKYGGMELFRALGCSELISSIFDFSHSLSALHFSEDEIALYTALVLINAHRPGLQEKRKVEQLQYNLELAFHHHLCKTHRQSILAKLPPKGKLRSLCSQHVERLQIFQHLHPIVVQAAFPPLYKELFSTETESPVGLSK
# [2] = molecular target: T2, Nuclear receptor ROR-alpha (Homo sapiens, UniProt P35398); test: Displacement of 25-[3H]hydroxycholesterol from GST-tagged ROR alpha ligand binding domain (unknown origin) expressed in Escherichia coli BL21 gold (DE3) cells by radioligand competition assay
# T2 sequence (P35398 whole entry): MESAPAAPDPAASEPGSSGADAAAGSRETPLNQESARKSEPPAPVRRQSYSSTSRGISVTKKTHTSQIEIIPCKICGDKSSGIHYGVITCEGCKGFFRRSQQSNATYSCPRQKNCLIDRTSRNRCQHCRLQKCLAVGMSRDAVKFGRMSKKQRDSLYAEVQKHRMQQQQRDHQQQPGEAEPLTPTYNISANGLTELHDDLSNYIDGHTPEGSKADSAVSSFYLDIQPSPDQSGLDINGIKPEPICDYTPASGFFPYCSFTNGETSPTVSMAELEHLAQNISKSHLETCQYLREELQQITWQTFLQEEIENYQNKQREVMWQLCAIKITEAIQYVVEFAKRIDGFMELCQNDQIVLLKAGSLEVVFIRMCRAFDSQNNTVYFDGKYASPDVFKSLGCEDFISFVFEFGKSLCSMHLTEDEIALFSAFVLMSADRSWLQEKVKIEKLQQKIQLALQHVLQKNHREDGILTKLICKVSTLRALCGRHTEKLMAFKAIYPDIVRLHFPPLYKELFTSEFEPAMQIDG
# [3] = molecular target: T1, Nuclear receptor ROR-gamma; test: Displacement of 25-[3H]hydroxycholesterol from GST-tagged ROR gamma ligand binding domain (unknown origin) expressed in Escherichia coli BL21 gold (DE3) cells by radioligand competition assay
# [4] = molecular target: T2, Nuclear receptor ROR-alpha; test: Inverse agonist activity at GAL4-fused ROR alpha (unknown origin) expressed in HEK293 cells assessed as inhibition of transcriptional activity after 24 hrs by luciferase reporter gene assay; type: cell-based
# [5] = molecular target: T1, Nuclear receptor ROR-gamma
# Description: Inverse agonist activity at GAL4-fused ROR gamma (unknown origin) expressed in HEK293 cells assessed as inhibition of transcriptional activity after 24 hrs by luciferase reporter gene assay
# [6] = molecular target: T1, Nuclear receptor ROR-gamma; test: Displacement of 25-[3H]hydroxycholesterol from ROR gamma (unknown origin) by competitive binding assay
# [7] = molecular target: T3, Nuclear receptor ROR-beta (Homo sapiens) (UniProt Q92753); test: Inhibition of ROR beta (unknown origin)-mediated transactivation
# T3 sequence (whole entry): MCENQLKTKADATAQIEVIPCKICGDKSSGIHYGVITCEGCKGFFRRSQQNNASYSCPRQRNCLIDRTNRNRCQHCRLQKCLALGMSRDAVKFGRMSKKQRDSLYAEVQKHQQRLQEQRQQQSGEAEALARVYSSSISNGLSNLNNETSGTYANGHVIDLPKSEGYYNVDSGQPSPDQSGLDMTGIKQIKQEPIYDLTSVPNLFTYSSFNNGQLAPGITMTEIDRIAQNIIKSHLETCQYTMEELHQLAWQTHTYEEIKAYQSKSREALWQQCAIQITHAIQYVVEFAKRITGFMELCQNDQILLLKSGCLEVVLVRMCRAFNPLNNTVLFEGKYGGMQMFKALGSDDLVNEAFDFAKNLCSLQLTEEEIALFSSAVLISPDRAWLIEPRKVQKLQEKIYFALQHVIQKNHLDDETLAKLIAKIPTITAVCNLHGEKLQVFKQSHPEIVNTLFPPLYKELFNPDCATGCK
# [8] = Plasma concentration in mouse at 10 mg/kg, ip after 0.5 hrs; type: ADME, organism-based; design: dose 10 mg/kg, route intraperitoneal
# [9] = Plasma concentration in mouse at 10 mg/kg, ip after 4 hrs; type: ADME, organism-based; design: dose 10 mg/kg, route intraperitoneal
# [10] = molecular target: T4, Nuclear receptor ROR-alpha (Mus musculus) (UniProt P51448); settings: CHO-K1
# T4 sequence (whole entry): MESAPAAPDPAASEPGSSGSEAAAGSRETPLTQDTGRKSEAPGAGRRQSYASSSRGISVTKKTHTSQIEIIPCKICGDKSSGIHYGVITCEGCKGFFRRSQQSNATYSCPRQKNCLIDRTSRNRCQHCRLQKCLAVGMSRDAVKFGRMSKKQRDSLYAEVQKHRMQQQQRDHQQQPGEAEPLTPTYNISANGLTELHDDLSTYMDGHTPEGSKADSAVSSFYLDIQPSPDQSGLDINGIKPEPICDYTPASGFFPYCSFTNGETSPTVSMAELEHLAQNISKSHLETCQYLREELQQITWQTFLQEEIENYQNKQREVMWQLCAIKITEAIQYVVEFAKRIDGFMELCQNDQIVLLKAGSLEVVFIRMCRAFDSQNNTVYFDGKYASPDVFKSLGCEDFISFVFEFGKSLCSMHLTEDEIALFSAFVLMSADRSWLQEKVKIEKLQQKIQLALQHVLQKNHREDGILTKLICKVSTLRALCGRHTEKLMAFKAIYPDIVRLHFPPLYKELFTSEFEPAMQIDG
# Description: Inverse agonist activity at mouse ROR alpha expressed in CHO-K1 cells after 24 hrs by luciferase reporter gene assay relative to vehicle control response
# [11] = molecular target: T5, Nuclear receptor ROR-gamma (Mus musculus) (UniProt P51450); settings: CHO-K1
# T5 sequence (whole entry): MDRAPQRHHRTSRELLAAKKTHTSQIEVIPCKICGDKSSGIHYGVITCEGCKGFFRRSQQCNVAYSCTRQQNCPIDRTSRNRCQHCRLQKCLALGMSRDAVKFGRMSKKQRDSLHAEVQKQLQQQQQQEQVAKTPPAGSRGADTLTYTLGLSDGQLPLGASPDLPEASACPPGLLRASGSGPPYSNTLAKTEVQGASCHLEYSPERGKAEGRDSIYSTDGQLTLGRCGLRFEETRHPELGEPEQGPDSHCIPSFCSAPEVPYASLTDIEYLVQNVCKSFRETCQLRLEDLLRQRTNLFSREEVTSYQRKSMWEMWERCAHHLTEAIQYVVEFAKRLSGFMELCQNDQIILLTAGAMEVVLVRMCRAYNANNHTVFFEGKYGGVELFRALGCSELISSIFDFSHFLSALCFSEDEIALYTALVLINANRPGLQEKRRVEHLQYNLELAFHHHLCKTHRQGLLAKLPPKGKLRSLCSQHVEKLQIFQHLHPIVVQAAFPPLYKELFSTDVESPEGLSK
# Description: Inverse agonist activity at mouse ROR gamma expressed in CHO-K1 cells after 24 hrs by luciferase reporter gene assay relative to vehicle control response
# [12] = molecular target: T1, Nuclear receptor ROR-gamma; test: Agonist activity at full length human ROR gamma expressed in human Jurkat cells assessed as IL17 promoter activation by luciferase reporter gene assay; type: functional, cell-based
# [13] = molecular target: T6, Nuclear receptor ROR-gamma (Homo sapiens) (UniProt P51449); test: Binding affinity to human ROR gamma ligand binding domain assessed as thermal stability shift by circular dichroism analysis
# T6 sequence (whole entry): T1 sequence (P51449 whole entry)
# [14] = Plasma concentration in mouse at 10 mg/kg, ip administered as single dose after 1 hr; type: ADME, organism-based; design: dose 10 mg/kg, route intraperitoneal
# [15] = Plasma concentration in mouse at 10 mg/kg, ip administered as single dose after 8 hrs; type: ADME, organism-based; design: dose 10 mg/kg, route intraperitoneal
# [16] = molecular target: T1, Nuclear receptor ROR-gamma; test: Agonist activity at human His6-tagged ROR gamma ligand binding domain (residues 262 to 507) expressed in Escherichia coli BL21 (DE3) cells assessed as increase in recruitment of coactivator peptide by AlphaScreen biochemical assay; type: functional
# [17] = molecular target: T7, Oxysterols receptor LXR-alpha (Homo sapiens) (UniProt Q13133); test: Activation of GAL4-fused LXR alpha (unknown origin) expressed in HEK293T cells after 20 hrs relative to T0901317; type: cell-based; settings: HEK-293T
# T7 sequence (whole entry): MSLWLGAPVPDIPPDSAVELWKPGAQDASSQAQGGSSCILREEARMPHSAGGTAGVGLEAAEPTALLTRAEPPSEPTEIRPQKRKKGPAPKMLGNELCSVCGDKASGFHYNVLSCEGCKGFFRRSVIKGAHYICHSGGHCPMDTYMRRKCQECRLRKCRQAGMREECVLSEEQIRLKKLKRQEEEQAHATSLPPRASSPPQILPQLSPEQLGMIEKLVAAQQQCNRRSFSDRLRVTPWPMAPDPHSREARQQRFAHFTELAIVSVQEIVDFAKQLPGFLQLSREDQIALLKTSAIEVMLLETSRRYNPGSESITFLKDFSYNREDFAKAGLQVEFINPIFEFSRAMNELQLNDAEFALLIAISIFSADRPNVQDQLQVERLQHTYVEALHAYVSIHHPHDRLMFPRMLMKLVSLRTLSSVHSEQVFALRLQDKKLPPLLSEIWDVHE
# [18] = molecular target: T6, Nuclear receptor ROR-gamma (Homo sapiens); test: Agonist activity at ROR gamma in human CD4+ T cells assessed as IL-17 production at 3 uM by ELISA; type: cell-based; settings: T-cell
smiles,measurement,setting,value
O=C(O)c1ccc(-c2nn(C(=O)c3c(Cl)cccc3Cl)c3ccccc23)cc1,EC50,[1],11 nM
CC(=O)Nc1nc(C)c(S(=O)(=O)Nc2ccc(C(O)(C(F)(F)F)C(F)(F)F)cc2)s1,Ki,[2],172 nM
same,Ki,[3],111 nM
same,EC50,[4],4000 nM
same,EC50,[5],4000 nM
CC(c1ccccc1)(c1ccc(O)cc1)c1ccc(O)cc1,IC50,[6],> 10000 nM
CC1=C(/C=C/C(C)=C/C=C/C(C)=C/C(=O)O)C(C)(C)CCC1,Imax,[7],70%
O=S(=O)(Nc1ccc(C(O)(C(F)(F)F)C(F)(F)F)cc1)c1cccs1,Ki,[2],220 nM
same,EC50,[4],480 nM
same,concentration at 0.5 h,[8],9 µM
same,concentration at 4 h,[9],> 0.36 µM
Clc1ccc(CS/C(Cn2cncn2)=N\c2ccc(Cl)cc2Cl)cc1,IC20,[10],10000 nM
same,IC20,[11],3000 nM
Cc1cccc(C(=O)Nc2cc(-c3ccccc3)no2)c1,EC50,[12],100 nM
same,melting temperature shift (delta Tm),[13],3 °C
O=C(Nc1ccc(C(O)(C(F)(F)F)C(F)(F)F)cc1)c1ccc(C(F)(F)F)cc1,concentration at 1 h,[14],3.6 µM
same,concentration at 8 h,[15],> 0.8 µM
CC(C)CC[C@@H](O)[C@@H](C)[C@H]1CC[C@H]2[C@@H]3CC=C4C[C@@H](O)CC[C@]4(C)[C@H]3CC[C@]12C [22(R)-HYDROXYCHOLESTEROL],EC50,[16],20 nM
CC(C)CC[C@H](O)[C@@H](C)[C@H]1CC[C@H]2[C@@H]3CC=C4C[C@@H](O)CC[C@]4(C)[C@H]3CC[C@]12C,EC50,[16],20 nM
CC(C)[C@@H](O)CC[C@@H](C)[C@H]1CC[C@H]2[C@@H]3CC=C4C[C@@H](O)CC[C@]4(C)[C@H]3CC[C@]12C,Ki,[3],10 nM
CCC(=O)Nc1ccc2nn(-c3ccc(CC)cc3)nc2c1,EC50,[12],100 nM
same,melting temperature shift (delta Tm),[13],3 °C
CC(C)CCC[C@@H](C)[C@H]1CC[C@H]2[C@@H]3[C@@H](O)C=C4C[C@@H](O)CC[C@]4(C)[C@H]3CC[C@]12C,Ki,[3],10 nM
O=S(=O)(c1ccccc1)N(CC(F)(F)F)c1ccc(C(O)(C(F)(F)F)C(F)(F)F)cc1,IC20,[10],12000 nM
CCC(C)c1cc(C(C)(C)c2ccc(O)c(C(C)CC)c2)ccc1O (stereo not drawn),IC50,[6],150 nM
CC(CO)CCC[C@@H](C)[C@H]1CC[C@H]2[C@@H]3CC=C4C[C@@H](O)CC[C@]4(C)[C@H]3CC[C@]12C (stereo partly drawn),EC50,[16],20 nM
CCCCC(O)(Cn1cncn1)c1ccc(Cl)cc1Cl (stereo not drawn),IC20,[10],10000 nM
same,IC20,[11],3000 nM
CCCOC/C(=N\c1ccc(Cl)cc1C(F)(F)F)n1ccnc1,IC20,[10],10000 nM
CC(C)CCC[C@@](C)(O)[C@H]1CC[C@H]2[C@@H]3CC=C4C[C@@H](O)CC[C@]4(C)[C@H]3CC[C@@]21C,EC50,[16],20 nM
CC(=O)N1CCN(Cc2ccc(-c3ccc(C(O)(C(F)(F)F)C(F)(F)F)cc3)cc2)CC1,Activity,[17],< 5%
Cc1cc(C)c2nc(NC(=O)c3sccc3C)sc2c1,EC50,[12],100 nM
same,Activity,[18],220%
same,melting temperature shift (delta Tm),[13],3 °C
CC(C)CCC[C@@H](C)[C@H]1CC[C@H]2[C@@H]3C(=O)C=C4C[C@@H](O)CC[C@]4(C)[C@H]3CC[C@]12C [7-OXOCHOLESTEROL],Ki,[2],12 nM
CC(C)CCC(O)[C@@H](C)[C@H]1CC[C@H]2[C@@H]3CC=C4C[C@@H](O)CC[C@]4(C)[C@H]3CC[C@]12C (stereo partly drawn),melting temperature shift (delta Tm),[13],7.3 °C
CC(C)CCC[C@@H](C)[C@H]1CC[C@H]2[C@@H]3[C@H](O)C=C4C[C@@H](O)CC[C@]4(C)[C@H]3CC[C@]12C,Ki,[3],10 nM
OC(c1ccc(-c2ccc(CN3CCN(Cc4ccncc4)CC3)cc2)c(F)c1)(C(F)(F)F)C(F)(F)F,Activity,[17],< 5%

# Reference: ChEMBL document CHEMBL3217638, “Synthetic modulators of the retinoic acid receptor-related orphan receptors” (Medchemcomm, 2013)
